Here are results for 56 compounds from US10640486B2, “Heteroarylcarboxamide derivatives as plasma kallikrein inhibitors” (Boehringer Ingelheim International GmbH, priority 2015, dated 2020).

SMILES strings stand for the structures.

This test addresses human Plasma Kallikrein (KLKB1) (Homo sapiens (Human), UniProt P03952). The test is described as follows: Inhibition of KLKB1 endpoint assay. In kind it is biochemical. Particulars: fluorogenic substrate H-Pro-Phe-Arg-AMC, 1 hr at Room Temperature, read-out: IC50 measurements for the inhibition of human Plasma Kallikrein (KLKB1). The procedure: The ability of compounds of Formula I to inhibit plasma kallikrein (KLKB1), Factor XIIa (FXIIa), Factor XIa (FXIa), Factor Xa (FXa), Factor IIa (alpha-thrombin; FIIa), plasmin, trypsin, tissue kallikrein 1 (KLK1), Factor VIIa (FVIIa), or FVIIa complexed with Tissue Factor, phospholipids and CaCl2 (FVIIa/TF/PL/CaCl2) was determined using the following biochemical assays in assay buffer (100 mM Tris, 150 mM NaCL, adjusted to a pH of 7.8 with HCl, and containing 0.1% (w/v) BSA and 0.05% (v/v) Tween20) in the presence of 1% (v/v) DMSO:
Evaluation of the Inhibition of KLKB1 Using an Endpoint Assay
Subsequently, PPACK II (Calbiochem) was added as a stop solution to achieve a final concentration of 1 μM and fluorescence was measured using an Envision Reader (PerkinElmer) with the wavelength excitation setting of 355 nm and the wavelength emission setting of 460 nm.
The IC50 values were obtained with the aid of the inhibition of KLKB1 endpoint assay described above.

Chain of human Plasma Kallikrein (KLKB1) (P03952 391-638): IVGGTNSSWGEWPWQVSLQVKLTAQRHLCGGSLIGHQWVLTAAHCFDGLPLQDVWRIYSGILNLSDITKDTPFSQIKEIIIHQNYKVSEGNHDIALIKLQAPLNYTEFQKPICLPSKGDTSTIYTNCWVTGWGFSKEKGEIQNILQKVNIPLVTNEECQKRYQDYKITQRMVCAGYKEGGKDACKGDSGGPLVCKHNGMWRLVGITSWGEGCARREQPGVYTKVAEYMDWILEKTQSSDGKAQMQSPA
Chain of human Plasma Kallikrein (KLKB1) (P03952 20-390 partner): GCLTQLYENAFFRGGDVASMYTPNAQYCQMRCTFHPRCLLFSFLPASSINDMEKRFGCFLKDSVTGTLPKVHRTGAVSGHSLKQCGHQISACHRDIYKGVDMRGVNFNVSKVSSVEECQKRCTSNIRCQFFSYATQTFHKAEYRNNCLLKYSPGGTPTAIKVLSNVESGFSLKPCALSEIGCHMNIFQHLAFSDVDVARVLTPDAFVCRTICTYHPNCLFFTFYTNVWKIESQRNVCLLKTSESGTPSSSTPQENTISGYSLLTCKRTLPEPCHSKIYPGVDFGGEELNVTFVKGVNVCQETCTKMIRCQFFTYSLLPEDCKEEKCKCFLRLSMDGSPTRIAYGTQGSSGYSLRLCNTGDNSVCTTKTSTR

As a reminder, the IC50 is the concentration that inhibits the measured activity by half. As to `Nc1nccc2c1CCC2NC(=O)c1cnn(Cc2ccc(CN3C[C@@H]4C[C@@H]4C3=O)cc2)c1` (single isomer, unassigned) [Example 48], the 50% inhibitory concentration (IC50) was 69 nM.
For `Nc1nccc2c1CCC2NC(=O)c1cnn(Cc2ccc(CN3C[C@@H]4C[C@@H]4C3=O)cc2)c1` (single isomer, unassigned) [Example 49], the IC50 was 2 nM.
For `Nc1nccc2c1CCC2NC(=O)c1cn(Cc2ccc(CN3C[C@@H]4C[C@@H]4C3=O)cc2)nc1C(F)(F)F` (single isomer, unassigned) [Example 50] the value was 1 nM.
Turning to `Nc1nccc2c1CCC2NC(=O)c1cn(Cc2ccc(CN3C[C@@H]4C[C@@H]4C3=O)cc2)nc1C(F)(F)F` (single isomer, unassigned) [Example 51], the concentration for half-maximal inhibition (IC50) came to 89 nM.
Regarding `Nc1nccc2c1CC[C@H]2NC(=O)c1cnn(Cc2ccc(CN3CC4CC4C3=O)c(C(F)(F)F)c2)c1` (single isomer, unassigned) [Example 52], the concentration for half-maximal inhibition (IC50) was 41 nM.
As for `Nc1nccc2c1CC[C@H]2NC(=O)c1cnn(Cc2ccc(CN3CC4CC4C3=O)c(C(F)(F)F)c2)c1` (single isomer, unassigned) [Example 53], the figure is 1 nM; as for `Nc1nccc2c1CCC2NC(=O)c1cnn(Cc2ccc(CN3C[C@H]4C[C@H]4C3=O)cc2)c1` (single isomer, unassigned) [Example 54], 46 nM.
For `Nc1nccc2c1CCC2NC(=O)c1cnn(Cc2ccc(CN3C[C@H]4C[C@H]4C3=O)cc2)c1` (single isomer, unassigned) [Example 55] the value was 490 nM; for `Cc1cc(Cn2cc(C(=O)N[C@@H]3CCc4c3ccnc4N)nn2)ccc1N1CCN2CCCCC2C1=O` (single isomer, unassigned) [Example 56], 1200 nM; for `Cc1cc(Cn2cc(C(=O)N[C@@H]3CCc4c3ccnc4N)nn2)ccc1N1CCN2CCCCC2C1=O` (single isomer, unassigned) [Example 57], 6200 nM.
For `Cc1cc(Cn2cc(C(=O)N[C@@H]3CCc4c3ccnc4N)nn2)ccc1N1CCN2CCCC2C1=O` (single isomer, unassigned) [Example 58] the value was 1600 nM; for `Cc1cc(Cn2cc(C(=O)N[C@@H]3CCc4c3ccnc4N)nn2)ccc1N1CCN2CCCC2C1=O` (single isomer, unassigned) [Example 59], 2200 nM.
On to `Cc1cc(Cn2cc(C(=O)N[C@@H]3CCc4nc(N)ccc43)cn2)ccc1CN1CC2CC2C1=O` (single isomer, unassigned) [Example 67], for which the IC50 amounted to 470 nM.
For `Cc1cc(Cn2cc(C(=O)N[C@@H]3CCc4nc(N)ccc43)cn2)ccc1CN1CC2CC2C1=O` (single isomer, unassigned) [Example 68] the value was 10 nM; for `CC(c1ccc(N2CC3CC3C2)nc1)n1cc(C(=O)N[C@@H]2CCc3c2ccnc3N)cn1` (single isomer, unassigned) [Example 72], 10 nM.
As for `CC(c1ccc(N2CC3CC3C2)nc1)n1cc(C(=O)N[C@@H]2CCc3c2ccnc3N)cn1` (single isomer, unassigned) [Example 73], the figure is 6 nM; as for `Nc1ccc2c(n1)CC[C@H]2NC(=O)c1cnn(Cc2ccc(CN3C[C@H]4C[C@H]4C3=O)cc2)c1` [Example 1, 1-[4-((1R,5S)-2-Oxo-3-aza-bicyclo[3.1.0]hex-3-ylmethyl)-benzyl]-1H-pyrazole-4-carboxylic acid ((R)-2-amino-6,7-dihydro-5H-[1]pyrindin-5-yl)-amide], 530 nM.
As for `Nc1ccc2c(n1)CCC2NC(=O)c1cnn(Cc2ccc(N3CCN4CCCC4C3)cc2)c1` (centres unmarked) [Example 2], the figure is 2100 nM; as for `Nc1ccc2c(n1)CC[C@H]2NC(=O)c1cnn(Cc2ccc(CN3C[C@@H]4C[C@@H]4C3=O)cc2)c1` [Example 3], 17 nM; as for `Nc1ccc2c(n1)CCC2NC(=O)c1cn(Cc2ccc(CN3CC4CC4C3=O)cc2)nc1C(F)(F)F` (centres unmarked) [Example 4], 63 nM.
For `Nc1nccc2c1CCC2NC(=O)c1cnn(Cc2ccc(CN3CC4CC4C3=O)cc2)c1` (centres unmarked) [Example 5], the 50% inhibitory concentration (IC50) was found to be 10 nM.
As for `Nc1cc2c(cn1)CCC2NC(=O)c1cnn(Cc2ccc(CN3CC4CC4C3=O)cc2)c1` (centres unmarked) [Example 6], the figure is 71 nM; as for `Nc1ccc2c(n1)CC[C@H]2NC(=O)c1cn(Cc2ccc(CN3C[C@H]4C[C@H]4C3=O)cc2)nc1C(F)(F)F` [Example 7], 420 nM.
As for `Nc1ccc2c(n1)CC[C@H]2NC(=O)c1cn(Cc2ccc(CN3C[C@@H]4C[C@@H]4C3=O)cc2)nc1C(F)(F)F` [Example 8], the figure is 14 nM; as for `Nc1ccc2c(n1)CCC2NC(=O)c1cn(Cc2ccc(N3CCN4CCCCC4C3=O)cc2)nn1` (centres unmarked) [Example 9], 3200 nM.
On to `Nc1ccc2c(n1)CCC2NC(=O)c1cn(Cc2ccc(Cn3cc4c(n3)CCOC4)cc2)nn1` (centres unmarked) [Example 10], for which the IC50 was 560 nM.
For `Nc1ccc2c(n1)CCC2NC(=O)c1cn(Cc2ccc(CN3CCN4C(=O)CCCC4C3)cc2)nn1` (centres unmarked) [Example 11] the value was over 10000 nM; for `Nc1nccc2c1C(NC(=O)c1cn(Cc3ccc(N4CCN5CCCCC5C4=O)cc3)nn1)CC2` (centres unmarked) [Example 12], over 10000 nM; for `Nc1cc2c(cn1)C(NC(=O)c1cn(Cc3ccc(N4CCN5CCCCC5C4=O)cc3)nn1)CC2` (centres unmarked) [Example 13], over 10000 nM.
For `Nc1ccc2c(n1)CCC2NC(=O)c1cn(Cc2ccc(CN3CCN4CCCC4C3=O)cc2)nn1` (centres unmarked) [Example 14] the value was 5900 nM; for `Nc1ccc2c(n1)CCC2NC(=O)c1cnn(Cc2ccc(CN3CC4CC4C3=O)cc2)c1` (centres unmarked) [Example 15], 81 nM.
As for `Cc1nn(Cc2ccc(CN3CC4CC4C3=O)cc2)cc1C(=O)NC1CCc2nc(N)ccc21` (centres unmarked) [Example 16], the figure is 85 nM; as for `Cc1cc(N)nc2c1C(NC(=O)c1cnn(Cc3ccc(CN4CC5CC5C4=O)cc3)c1)CC2` (centres unmarked) [Example 17], 42 nM.
Take `Cc1cc(Cn2cc(C(=O)NC3CCc4nc(N)ccc43)nn2)ccc1N1CCN2CCCCC2C1=O` (centres unmarked) [Example 18]: the IC50 turned out to be 1200 nM.
As for `Cc1cc(N)nc2c1C(NC(=O)c1cn(Cc3ccc(N4CCN5CCCCC5C4=O)cc3)nn1)CC2` (centres unmarked) [Example 19], the figure is 2600 nM; as for `Nc1ccc2c(n1)CC[C@H]2NC(=O)c1cnn(Cc2ccc(CN3CC4CC4C3=O)c(C(F)(F)F)c2)c1` (some centres unmarked) [Example 22], 19 nM.
For `Nc1nccc2c1CC[C@H]2NC(=O)c1cnn(Cc2ccc(CN3CC4CC4CC3=O)cc2)c1` (some centres unmarked) [Example 23] the value was 2 nM; for `Nc1cc(C(F)(F)F)c2c(n1)CCC2NC(=O)c1cnn(Cc2ccc(CN3CC4CC4C3=O)cc2)c1` (centres unmarked) [Example 24], 3300 nM.
On to `Nc1ccc2c(n1)CCC2NC(=O)c1cn(Cc2ccc(-n3cc4c(n3)CCOC4)cc2)nn1` (centres unmarked) [Example 27], for which the IC50 was over 10000 nM.
As for `Nc1ccc2c(n1)CCC2NC(=O)c1cn(Cc2ccc(C3CC4CCCN4C3=O)cc2)nn1` (centres unmarked) [Example 29], the figure is 2200 nM; as for `Nc1ccc2c(n1)CC[C@H]2NC(=O)c1cn(Cc2ccc(N3CC4CC4C3)nc2)nn1` (some centres unmarked) [Example 32], 24 nM.
Take `Nc1nccc2c1CC[C@H]2NC(=O)c1cn(Cc2ccc(N3CC4CC4C3)nc2)nn1` (some centres unmarked) [Example 33]: the IC50 came out at 2 nM.
For `Nc1nccc2c1CC[C@H]2NC(=O)c1cn(Cc2ccc(N3CC(=O)N4CCCC4C3)nc2)nn1` (some centres unmarked) [Example 34] the value was 390 nM; for `Nc1nccc2c1CC[C@H]2NC(=O)c1cn(Cc2ccc(N3CCN4C(=O)COCC4C3)nc2)nn1` (some centres unmarked) [Example 35], 600 nM; for `Nc1nccc2c1CC[C@H]2NC(=O)c1cnn(Cc2ccc(N3CC4CC4C3)nc2C(F)(F)F)c1` (some centres unmarked) [Example 36], 1 nM.
As for `Nc1ccc2c(n1)CC[C@H]2NC(=O)c1cnn(Cc2ccc(N3CC4CC4C3)nc2C(F)(F)F)c1` (some centres unmarked) [Example 37], the figure is 8 nM; as for `Nc1nccc2c1CC[C@H]2NC(=O)c1cn(Cc2ccc(N3CC4CC4C3)nc2C(F)(F)F)nn1` (some centres unmarked) [Example 38], 1 nM; as for `Nc1ccc2c(n1)CC[C@H]2NC(=O)c1cn(Cc2ccc(N3CC4CC4C3)nc2C(F)(F)F)nn1` (some centres unmarked) [Example 39], 14 nM.
For `Nc1ccc2c(n1)CC[C@H]2NC(=O)c1cnn(Cc2cnc(N3CC4CC4C3)cc2C(F)(F)F)c1` (some centres unmarked) [Example 40] the value was 9 nM; for `Nc1nccc2c1CC[C@H]2NC(=O)c1cnn(Cc2cnc(N3CC4CC4C3)cc2C(F)(F)F)c1` (some centres unmarked) [Example 41], 1 nM.
For `Nc1nccc2c1CC[C@H]2NC(=O)c1cn(Cc2cnc(N3CC4CC4C3)cc2C(F)(F)F)nn1` (some centres unmarked) [Example 42], the IC50 came to 1 nM.
With `Nc1ccc2c(n1)CC[C@H]2NC(=O)c1cn(Cc2cnc(N3CC4CC4C3)cc2C(F)(F)F)nn1` (some centres unmarked) [Example 43], the half-maximal inhibitory concentration (IC50) is 13 nM.
In the case of `Cc1cc(N2CC3CC3C2)ncc1Cn1cc(C(=O)N[C@@H]2CCc3nc(N)ccc32)cn1` (some centres unmarked) [Example 44], the IC50 is 30 nM.
`Cc1cc(N2CC3CC3C2)ncc1Cn1cc(C(=O)N[C@@H]2CCc3c2ccnc3N)cn1` (some centres unmarked) [Example 45]: the IC50 was found to be 4 nM.
As for `Cc1cc(N2CC3CC3C2)ncc1Cn1cc(C(=O)N[C@@H]2CCc3nc(N)ccc32)nn1` (some centres unmarked) [Example 46], the figure is 38 nM.
As for `Cc1cc(N2CC3CC3C2)ncc1Cn1cc(C(=O)N[C@@H]2CCc3c2ccnc3N)nn1` (some centres unmarked) [Example 47], the figure is 4 nM.
